Test results published in PMC4311893 (ChemMedChem, 2014).

Tests used:
[1] = target: T1, human arginase-I (Mn-hArgI) (Homo sapiens, UniProt P05089); test: urea formation assay, IC50 […] with Cheng-Prusoff Ki; format: biochemical
T1 sequence (P05089 1-322): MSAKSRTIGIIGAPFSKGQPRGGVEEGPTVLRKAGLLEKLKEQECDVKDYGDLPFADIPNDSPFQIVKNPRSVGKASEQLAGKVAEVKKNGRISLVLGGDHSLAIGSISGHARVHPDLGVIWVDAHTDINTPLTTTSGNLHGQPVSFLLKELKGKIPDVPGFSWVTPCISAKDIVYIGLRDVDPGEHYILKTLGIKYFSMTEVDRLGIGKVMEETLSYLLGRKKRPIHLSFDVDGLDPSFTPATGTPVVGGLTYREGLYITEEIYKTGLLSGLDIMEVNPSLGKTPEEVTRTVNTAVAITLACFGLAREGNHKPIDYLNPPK

[2] = target: dimethylarginine dimethylaminohydrolase-1 (DDAH-1) (Homo sapiens, UniProt O94760); test: time-dependent inactivation kinetics in competition with ADMA; format: biochemical; details: read-out: Ki
dimethylarginine dimethylaminohydrolase-1 (DDAH-1), sequence (O94760 whole entry): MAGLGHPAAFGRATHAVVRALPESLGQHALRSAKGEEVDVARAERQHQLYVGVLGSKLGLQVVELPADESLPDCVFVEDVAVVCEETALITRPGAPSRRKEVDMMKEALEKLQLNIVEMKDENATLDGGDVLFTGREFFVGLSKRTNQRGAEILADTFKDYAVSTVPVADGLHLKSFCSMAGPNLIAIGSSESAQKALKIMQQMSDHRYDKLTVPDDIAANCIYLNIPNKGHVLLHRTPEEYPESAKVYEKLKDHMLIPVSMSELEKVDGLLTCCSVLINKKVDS

## N=C(CCl)NCCC[C@H](N)C(=O)O [Cl-NIO, N^5-(1-imino-2-chloroethyl)-L-ornithine]
[1]
  Ki: 3.1 mM
[2]
  KI (inactivation): 0.0013 ± 0.0006 mM
